Reference: the Biogen ADME set (Fang et al. 2023)
In brackets after ≈: the same amount, converted by molar mass.

Conditions: for aqueous solubility: pH 6.8

| MDR1-MDCK efflux ratio | intrinsic clearance, human liver microsomes [mL/min/kg] | intrinsic clearance, rat liver microsomes [mL/min/kg] | aqueous solubility [µg/mL] | fraction unbound, human plasma | fraction unbound, rat plasma | Structure (SMILES) |
| --- | --- | --- | --- | --- | --- | --- |
| 0.877 | 13.4 | 63.7 | 45.5 (≈ 172 µM) |  |  | N#Cc1ccc(N2CCc3c(ncn3C3CC3)C2)nc1 |
| 0.701 | ≤ 4.74 | 28.1 | 38.4 (≈ 162 µM) |  |  | Nc1ccc2c(c1)ncn2CCc1ccccc1 |
| 97.9 | 108 | 557 | 60.3 (≈ 102 µM) | 0.00624 | 0.00368 | CCc1nc2c(C)cc(N3CCN(CC(=O)N4CC(O)C4)CC3)cn2c1N(C)c1nc(-c2ccc(F)cc2)c(C#N)s1 |
| 0.531 | 262 | 2310 | 7.2 (≈ 22.9 µM) |  |  | N#CCCN(C(=O)c1cccs1)C12CC3CC(CC(C3)C1)C2 |
| 5.28 | 16.7 | 106 | 95.5 (≈ 233 µM) |  |  | COc1cccc(OCCCn2cncc2-c2cc3c(cc2OC)OCCCO3)c1 |
| 0.593 | 39.3 | 342 | 24.5 (≈ 94.5 µM) |  |  | Cc1nnsc1CN(C)c1ccc2cc[nH]c2n1 |
| 8.59 | 78.1 | 442 |  |  |  | CC(=O)N(C)[C@H]1CC2(CCN(C(=O)COc3cc(C)c(Cl)c(C)c3)CC2)OC[C@]1(C)O |
| 20.5 |  |  | 15.6 (≈ 41.6 µM) |  |  | COC(=O)c1ccc(NS(=O)(=O)c2ccc3c(c2)n(C)c(=O)n3C)cc1 |
| 3.5 | 8.75 | 441 |  |  |  | c1ccc2nc(NCCn3ccnc3)cnc2c1 |
|  | ≤ 4.74 | 21.3 |  | 0.974 | 0.912 | CC1(CNC(=O)c2cncc(C3CCNCC3)n2)CCCO1 (stereo unspecified) |
| 0.47 | 33.5 | 354 | 30 (≈ 106 µM) |  |  | O[C@@H]1CO[C@H]2C[C@@H]1Nc1c(Cc3ccccc3)cccc12 |
| 122 | 27 | 142 | 64.9 (≈ 162 µM) |  |  | CN1CC[C@@H](c2c(O)cc(O)c3c(=O)cc(-c4ccccc4Cl)oc23)[C@@H]1CO |
|  | 6.28 | 126 | 29.3 (≈ 119 µM) |  |  | N#Cc1cccc(CN2CCN(CCO)CC2)c1 |
| 1.31 | 15.2 | 108 | 44 (≈ 120 µM) |  |  | O=C(NCCN1CCC(c2ccccc2)CC1)c1ccc2ncsc2c1 |
|  | 6.88 | 764 | 38.1 (≈ 147 µM) |  |  | Cc1cccnc1NC(=O)CCc1ccc(F)cc1 |
| 0.571 | 19.6 | 148 |  |  |  | c1cnc(NCc2cccc(-c3cccnc3)c2)nc1 |
| 29.1 | ≤ 4.74 | ≤ 10.7 |  |  |  | Cc1cc(C(=O)N2CCN(C(=O)C3CCC3)CC2)c(O)cn1 |
|  | ≤ 4.74 | ≤ 10.7 |  |  |  | CSC[C@H]1CN(Cc2c[nH]c3c(N)ncnc23)C[C@@H]1O |
|  | 14.2 | 133 | 2.96 (≈ 6.03 µM) |  |  | CS(=O)(=O)c1cccc(CNc2nc(Nc3ccc4c(c3)CCC(=O)N4)ncc2C(F)(F)F)c1 |

| MDR1-MDCK efflux ratio | intrinsic clearance, human liver microsomes [mL/min/kg] | intrinsic clearance, rat liver microsomes [mL/min/kg] | aqueous solubility [µg/mL] | fraction unbound, human plasma | fraction unbound, rat plasma | Structure (SMILES) |
| --- | --- | --- | --- | --- | --- | --- |
| 0.687 | ≤ 4.74 | 80.1 | 45.8 (≈ 171 µM) |  |  | CCOC(=O)c1cccnc1-c1cccc2ccnn12 |
|  |  |  | 0.73 (≈ 2.47 µM) |  |  | N=C1/C(=C\c2ccco2)C(=O)N=C2Sc3ccccc3N12 |
|  | 767 | 4910 | 24.7 (≈ 57.4 µM) |  |  | O=C(c1cccs1)N1CCCC(C(=O)N2Cc3ccccc3C(c3ccccc3)C2)C1 (stereo unspecified) |
| 17.7 | ≤ 4.74 | 18.4 | 45 (≈ 192 µM) |  |  | Cc1nc(N(C)C)cc(C2(C)CCNCC2)n1 |
| 0.629 | 182 | 298 |  |  |  | COc1nccnc1N1CCC(C(=O)Nc2cccc(F)c2)CC1 |
| 2.74 | 22.2 | 134 | 61.8 (≈ 220 µM) |  |  | CN(C(=O)c1cncc(F)c1)c1cccc2ncccc12 |
| 0.746 | 16.6 | 147 |  |  |  | CCc1nnc(N2CCCO2)c(C#N)c1CC |
| 30.4 | 10.1 | 74.2 | 55.8 (≈ 166 µM) |  |  | CC(=O)N1CCN(CCNC(=O)N2CCc3sccc3C2)CC1 |
| 2.51 | 15.4 | 222 | 48.6 (≈ 174 µM) |  |  | CN(Cc1ccncc1)Cc1cc2ccccc2nc1O |
|  | ≤ 4.74 | ≤ 10.7 | 21.1 (≈ 93.9 µM) |  |  | CN(C)C(=O)Cn1cc(C(=O)O)ccc1=O |
| 0.9 | ≤ 4.74 | 97.6 | 2.04 (≈ 6.07 µM) |  |  | Cc1ccc(C(=O)NC2CCN(CC#N)CC2)cc1Br |
| 1.58 | 16.6 | 89.2 | 10.8 (≈ 34.7 µM) |  |  | Cn1ncc2c1CCc1sc(NC(=O)c3cccnc3)nc1-2 |
|  |  |  | 1.13 (≈ 4.13 µM) |  |  | CCOc1ncccc1C(=O)Nc1sccc1C#N |
| 0.679 | 49.2 | 663 | 15.9 (≈ 44.2 µM) |  |  | Cc1ccc(-c2nnc([C@H]3CCN(Cc4cc5ccccc5o4)C3)o2)cc1 |
|  | 26 | 472 |  |  |  | Clc1cnc(NCC2(c3ccncc3)CC2)nc1 |
| 0.869 | 65.2 | 1790 | 49.7 (≈ 141 µM) |  |  | Cc1ccc(C2(O)CCN(Cc3cn(C)c4ccc(F)cc34)CC2)cc1 |
|  |  |  | 41 (≈ 143 µM) |  |  | NC(=O)Cc1nc(-c2ccc(Cl)cc2Cl)cs1 |
| 6.72 | ≤ 4.74 | ≤ 10.7 | 40 (≈ 153 µM) |  |  | C[C@@H](CO)Nc1nc(C(F)(F)F)nc2[nH]cnc12 |
| 14.6 |  |  | 38.5 (≈ 100 µM) |  |  | CC(C)S(=O)(=O)c1ccc2nccc(Nc3ccc4scnc4c3)c2c1 |

| MDR1-MDCK efflux ratio | intrinsic clearance, human liver microsomes [mL/min/kg] | intrinsic clearance, rat liver microsomes [mL/min/kg] | aqueous solubility [µg/mL] | fraction unbound, human plasma | fraction unbound, rat plasma | Structure (SMILES) |
| --- | --- | --- | --- | --- | --- | --- |
| 0.659 | ≤ 4.74 | ≤ 10.7 | 62.3 (≈ 217 µM) |  |  | O=C(NCC(=O)N1CCN(C2CC2)CC1)c1ccccc1 |
| 72.4 | 124 | 672 |  | 0.12 | 0.0823 | CN1CCN(S(=O)(=O)c2ccc(-c3cnc(N)c(C(=O)Nc4cccnc4)n3)cc2)CC1 |
| 1.34 | ≤ 4.74 | ≤ 10.7 |  |  |  | Cc1noc(NCc2c(C)nn(C)c2C)n1 |
| 0.562 | 44.6 | 268 | 44.8 (≈ 135 µM) |  |  | CC(C)c1csc(NC(=O)C2CCN(c3ncccn3)CC2)n1 |
| 11.3 | ≤ 4.74 | ≤ 10.7 | 45.2 (≈ 152 µM) |  |  | O=C(CCN1C(=O)CCC1=O)Nc1cccc2ncccc12 |
| 8.01 |  |  | 0.3 (≈ 0.639 µM) |  |  | COc1cc2ncn(-c3cc(OCc4ccccc4S(C)(=O)=O)c(C#N)s3)c2cc1OC |
| 3.7 | ≤ 4.74 | 18 | 56.6 (≈ 142 µM) |  |  | Cn1cnnc1-c1cccc(NS(=O)(=O)c2ccc(N3CCCC3=O)cc2)c1 |
|  | 20.6 | 189 |  |  |  | CCN(CC)C(=O)Oc1cccc2cccnc12 |
| 6.01 | 106 | 875 |  |  |  | COc1ccc(Cl)cc1-c1cccc(C(=O)NCCN2CCCC2=O)c1 |
| 0.273 | 5.3 | 16.1 |  |  |  | CN(C)C1(CNC(=O)Cn2ccc(=O)cc2)CCCCC1 |
|  |  |  | 49 (≈ 190 µM) |  |  | CCc1cc2c(=O)[nH]c(-c3ccccn3)nc2s1 |
| 72.5 | ≤ 4.74 | 38.2 | 31.4 (≈ 85.6 µM) |  |  | CN(C)Cc1csc(-c2nccn2-c2ccc3c(c2)n(C)c(=O)n3C)c1 |
| 50.4 | 36.5 | 518 | 51.9 (≈ 158 µM) |  |  | Cc1ncsc1CN1CCCN(c2nc3ccccc3[nH]2)CC1 |
|  | ≤ 4.74 | ≤ 10.7 |  |  |  | CC(C)c1nc(/C=C/c2cnn(C)c2)ncc1C(=O)O |
| 0.56 | 41.3 | 226 | 24.9 (≈ 113 µM) |  |  | CCCCN(C)C(=O)Nc1cc(C)ccn1 |
| 0.425 | ≤ 4.74 | ≤ 10.7 |  |  |  | CN(C)S(=O)(=O)CCCN1CCC(CCC(N)=O)CC1 |
| 1.56 | 7.78 | 32.5 | 33.8 (≈ 82.1 µM) |  |  | COc1cccc(-n2nc(C(=O)O)cc2-c2ccc(C3CCCCC3)c(Cl)c2)c1 |
| 22.4 |  |  | 5.79 (≈ 15 µM) |  |  | O=C(Cn1nc2n(c1=O)-c1ccccc1C1=NCCN12)N1CCc2ccccc21 |
| 2.9 | ≤ 4.74 | 17.3 |  |  |  | CCOc1c2c(c(OCC)c3ccccc13)C(=O)N(c1ccc(CC(=O)NS(=O)(=O)c3ccccc3)cc1)C2 |

| Structure (SMILES) | MDR1-MDCK efflux ratio | intrinsic clearance, human liver microsomes [mL/min/kg] | intrinsic clearance, rat liver microsomes [mL/min/kg] | aqueous solubility [µg/mL] | fraction unbound, human plasma | fraction unbound, rat plasma |
| --- | --- | --- | --- | --- | --- | --- |
| N#CCCCN1CCC(c2c[nH]c3ccccc23)CC1 | 0.46 | 23.8 | 1730 | 54.6 (≈ 204 µM) |  |  |
